Laboratory results reported in US11000033B2, “Ketone or oxime compound, and herbicide” (NISSAN CHEMICAL CORPORATION, priority 2014, dated 2021).

Key:
Assay type in all cases: in vivo
[1] = tested on: wheat; assay: Test Example 5: effect on crop by foliage application, plastic box (symbol e); details: 320 g/ha, 3 weeks after application
How it was run: (§1)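 Crop and weed seeds sown in spots in sterilized diluvial soil in plastic boxes and covered with about 1.5 cm soil. Plants raised in a greenhouse at 25° C. to 30° C. for foliar application.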

[2] = tested on: Avena fatua; assay: Test Example 5: herbicidal effect by foliage application, plastic box (symbol I); details: 320 g/ha, 3 weeks after application
How it was run: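 Emulsion formulation, diluted with water to the intended rate, was applied uniformly to leaves by small sprayer. Recipients were 14-day greenhouse-grown seedlings (25° C. to 30° C.). Assessment followed at 3 weeks.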

[3] = tested on: soybean; assay: Test Example 4: effect on crop by soil treatment (symbol d); details: application herbicide amount 320 g/ha
How it was run: (§2)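 Diluvial soil (sterilized) in boxes; seeds placed spot-wise alongside weed species; ~1.5 cm covering soil. Greenhouse, 25–30° C.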

[4] = tested on: soybean; assay: Test Example 5: effect on crop by foliage application, plastic box (symbol d); details: 320 g/ha, 3 weeks after application
How it was run: as §1

[5] = tested on: Echinochloa crus-galli var. crus-galli; assay: Test Example 3: herbicidal effect by foliage application, Wagner pot (symbol H); details: application herbicide amount 320 g/ha
How it was run: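 Plants sown in submerged alluvial soil (water depth 0.1–0.5 cm) in a 25–30 °C greenhouse and grown 14 days. An emulsion of the compound diluted in water to a set herbicide amount was sprayed uniformly on foliage. Effect on each plant scored 3 weeks after application.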

[6] = tested on: Echinochloa oryzacola Vasing.; assay: Test Example 1: herbicidal activity, application before weed generation in submerged conditions (symbol A); details: application herbicide amount 320 g/ha
How it was run: (§3)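 Application before weed emergence: an aqueous dilution of the emulsion formulation was poured onto the surface of 4 cm-deep floodwater on the day of sowing. Effect was judged after 3 weeks (greenhouse, 25–30 °C).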

[7] = tested on: rice plant; assay: Test Example 5: effect on crop by foliage application, plastic box (symbol b); details: 320 g/ha, 3 weeks after application
How it was run: as §1

[8] = tested on: rapeseed; assay: Test Example 4: effect on crop by soil treatment (symbol g); details: application herbicide amount 320 g/ha
How it was run: as §2

[9] = tested on: Scirpus juncoides; assay: Test Example 1: herbicidal activity, application before weed generation in submerged conditions (symbol B); details: application herbicide amount 320 g/ha
How it was run: as §3

[10] = tested on: Amaranthus retroflexus; assay: Test Example 4: herbicidal effect by soil treatment (symbol N); details: application herbicide amount 320 g/ha
How it was run: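 Seeds were sown in sterilized diluvial soil, covered with about 1.5 cm of soil, and the soil surface was sprayed with a water-diluted emulsion of the compound at a predetermined rate. Plants grew in a greenhouse at 25° C. to 30° C.; effects were scored visually 3 weeks after application.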

[11] = tested on: Monochoria vaginalis; assay: Test Example 2: herbicidal activity, application during weed generation in submerged conditions (symbol C); details: Table 23; application herbicide amount 320 g/ha; grade 0-5 by criteria of Test Example 1
How it was run: (§4)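 Seeds sown in flooded alluvial soil (4 cm water) were grown in a 25-30° C greenhouse. At the one- to two-leaf stage, diluted emulsion of compound was applied to the water surface at a predetermined rate. Effect was scored 3 weeks later.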

[12] = tested on: Scirpus juncoides; assay: Test Example 2: herbicidal activity, application during weed generation in submerged conditions (symbol B); details: Table 23; application herbicide amount 320 g/ha; grade 0-5 by criteria of Test Example 1
How it was run: as §4

| Compound | e: wheat, effect on crop grade [1] | I: Avena fatua, herbicidal effect grade [2] | d (soybean) effect on crop grade [3] | d: soybean, effect on crop grade [4] | herbicidal effect on H (Echinochloa crus-galli var. crus-galli), grade 0-5 [5] | Herbicidal effect grade, A: Echinochloa oryzacola Vasing. [6] | b: directly sowed rice plant, effect on crop grade [7] | g (rapeseed) effect on crop grade [8] | Herbicidal effect grade, B: Scirpus juncoides [9] | N (Amaranthus retroflexus) herbicidal effect grade [10] | Herbicidal effect grade, C: Monochoria vaginalis [11] | Herbicidal effect grade, B: Scirpus juncoides [12] |
| --- | --- | --- | --- | --- | --- | --- | --- | --- | --- | --- | --- | --- |
| CON=C(CC1CC(O)=C(c2c(C)cc(C)cc2C)C1=O)c1ccccn1 (stereo not drawn) [1-045] | 0 (Herbicidal ratio of 5% or lower (almost no effect)) | 5 (Herbicidal ratio of 90% or more (almost completely withered)) | 0 (Herbicidal ratio of 5% or lower (almost no effect)) | 1 (Herbicidal ratio of 5% or higher and lower than 20%) | 5 (Herbicidal ratio of 90% or more (almost completely withered)) | 5 (Herbicidal ratio of 90% or more (almost completely withered)) | 5 (Herbicidal ratio of 90% or more (almost completely withered)) | 0 (Herbicidal ratio of 5% or lower (almost no effect)) | 2 (Herbicidal ratio of 20% or higher and lower than 40%) | 0 (Herbicidal ratio of 5% or lower (almost no effect)) | 0 (Herbicidal ratio of 5% or lower (almost no effect)) | 0 (Herbicidal ratio of 5% or lower (almost no effect)) |
| CON=C(C)C(c1ccc(F)cc1)C1CC(O)=C(c2c(C)cc(C)cc2C)C1=O (stereo not drawn) [1-049] | 0 (Herbicidal ratio of 5% or lower (almost no effect)) | 0 (Herbicidal ratio of 5% or lower (almost no effect)) | 0 (Herbicidal ratio of 5% or lower (almost no effect)) | 0 (Herbicidal ratio of 5% or lower (almost no effect)) | 0 (Herbicidal ratio of 5% or lower (almost no effect)) | 0 (Herbicidal ratio of 5% or lower (almost no effect)) | 0 (Herbicidal ratio of 5% or lower (almost no effect)) | 0 (Herbicidal ratio of 5% or lower (almost no effect)) | 0 (Herbicidal ratio of 5% or lower (almost no effect)) | 0 (Herbicidal ratio of 5% or lower (almost no effect)) | 0 (Herbicidal ratio of 5% or lower (almost no effect)) | 0 (Herbicidal ratio of 5% or lower (almost no effect)) |
| CCCC(CC1CC(O)=C(c2c(C)cc(C)cc2C)C1=O)=NOC (stereo not drawn) [1-062] | 0 (Herbicidal ratio of 5% or lower (almost no effect)) | 4 (Herbicidal ratio of 70% or higher and lower than 90%) | 0 (Herbicidal ratio of 5% or lower (almost no effect)) | 0 (Herbicidal ratio of 5% or lower (almost no effect)) | 4 (Herbicidal ratio of 70% or higher and lower than 90%) | 5 (Herbicidal ratio of 90% or more (almost completely withered)) | 5 (Herbicidal ratio of 90% or more (almost completely withered)) | 3 (Herbicidal ratio of 40% or higher and lower than 70%) | 2 (Herbicidal ratio of 20% or higher and lower than 40%) | 0 (Herbicidal ratio of 5% or lower (almost no effect)) | 0 (Herbicidal ratio of 5% or lower (almost no effect)) | 0 (Herbicidal ratio of 5% or lower (almost no effect)) |
| CON=C(C)CC1CC(OC(=O)COc2ccc(C)cc2)=C(c2c(C)cc(C)cc2C)C1=O (stereo not drawn) [1-072] | 5 (Herbicidal ratio of 90% or more (almost completely withered)) | 5 (Herbicidal ratio of 90% or more (almost completely withered)) | 0 (Herbicidal ratio of 5% or lower (almost no effect)) | 2 (Herbicidal ratio of 20% or higher and lower than 40%) | 4 (Herbicidal ratio of 70% or higher and lower than 90%) | 5 (Herbicidal ratio of 90% or more (almost completely withered)) | 5 (Herbicidal ratio of 90% or more (almost completely withered)) | 4 (Herbicidal ratio of 70% or higher and lower than 90%) | 4 (Herbicidal ratio of 70% or higher and lower than 90%) | 5 (Herbicidal ratio of 90% or more (almost completely withered)) | 0 (Herbicidal ratio of 5% or lower (almost no effect)) | 3 (Herbicidal ratio of 40% or higher and lower than 70%) |
| CC(CC1CC(O)=C(c2c(C)cc(C)cc2C)C1=O)=NOC(C)C (stereo not drawn) [1-052] | 5 (Herbicidal ratio of 90% or more (almost completely withered)) | 5 (Herbicidal ratio of 90% or more (almost completely withered)) | 0 (Herbicidal ratio of 5% or lower (almost no effect)) | 4 (Herbicidal ratio of 70% or higher and lower than 90%) | 5 (Herbicidal ratio of 90% or more (almost completely withered)) | 5 (Herbicidal ratio of 90% or more (almost completely withered)) | 5 (Herbicidal ratio of 90% or more (almost completely withered)) | 3 (Herbicidal ratio of 40% or higher and lower than 70%) | 5 (Herbicidal ratio of 90% or more (almost completely withered)) | 3 (Herbicidal ratio of 40% or higher and lower than 70%) | 0 (Herbicidal ratio of 5% or lower (almost no effect)) | 2 (Herbicidal ratio of 20% or higher and lower than 40%) |
| CCON=C(C)CC1CC(O)=C(c2c(C)cc(C)cc2C)C1=O (stereo not drawn) [1-003] | 5 (Herbicidal ratio of 90% or more (almost completely withered)) | 5 (Herbicidal ratio of 90% or more (almost completely withered)) | 3 (Herbicidal ratio of 40% or higher and lower than 70%) | 3 (Herbicidal ratio of 40% or higher and lower than 70%) | 5 (Herbicidal ratio of 90% or more (almost completely withered)) | 5 (Herbicidal ratio of 90% or more (almost completely withered)) | 5 (Herbicidal ratio of 90% or more (almost completely withered)) | 4 (Herbicidal ratio of 70% or higher and lower than 90%) | 4 (Herbicidal ratio of 70% or higher and lower than 90%) | 3 (Herbicidal ratio of 40% or higher and lower than 70%) | 3 (Herbicidal ratio of 40% or higher and lower than 70%) | 3 (Herbicidal ratio of 40% or higher and lower than 70%) |
